From patent US9701556B1, “Compositions, methods, and systems for reducing contamination” (priority 2004, dated 2017)
Several values for one entry are separate records, joined by “and”; a condition that tells them apart may be missing. Equal entries are not always repeated.

Experiments:
[1] = Treatment of sulfides in municipal wastewater with ferric chelants and hydrogen peroxide; conditions: for sulfide reduction after 15 minutes: 2.5:1.0 peroxide to sulfide, 105.8 ppm hydrogen peroxide, 20 ppm chelant where added, peroxide alone averaged; for sulfide treatment after 15 minutes: 37.8 ppm hydrogen peroxide, 12 ppm chelant where added; for Percentage of Sulfide Treated, Dose 1 12 ppm Chelant 37.8 ppm H2O2 / Percentage of Sulfide Treated, Dose 2 6 ppm Chelant 37.8 ppm H2O2 / Percentage of Sulfide Treated, Dose 1 20 ppm Chelant 105.8 ppm H2O2 / Percentage of Sulfide Treated, Dose 2 10 ppm Chelant 105.8 ppm H2O2: after 30 minutes; for Percentage of Sulfide Treated, Dose 1 12 ppm Chelant 37.8 ppm H2O2 / Percentage of Sulfide Treated, Dose 2 6 ppm Chelant 37.8 ppm H2O2: 1.5:1.0 ratio of peroxide to sulfide; for Percentage of Sulfide Treated, Dose 1 20 ppm Chelant 105.8 ppm H2O2 / Percentage of Sulfide Treated, Dose 2 10 ppm Chelant 105.8 ppm H2O2: 2.5:1.0 ratio of peroxide to sulfide; for sulfide treatment compared with hydrogen peroxide alone, in words: over 30 minutes of treatment; for Sulfide Remaining, Dose 1 12 ppm Chelant / Sulfide Remaining, Dose 2 6 ppm Chelant: 37.8 ppm H2O2, start 25.4 ppm sulfide; for Sulfide Remaining, Dose 1 20 ppm Chelant / Sulfide Remaining, Dose 2 10 ppm Chelant: 105.8 ppm H2O2, start 42.3 ppm sulfide
heterotrophic bacteria = test: Disinfection of wastewater with chelated iron compounds, total heterotrophic bacteria counts; format: cell-based; conditions: for Test 1 CFUs/ml, 19.8 ppm H2O2 6 ppm Fe-Chelant / Test 2 CFUs/ml, 39.6 ppm H2O2 12 ppm Fe-Chelant / Test 3 CFUs/ml, 12 ppm Fe-Chelant: 30 minutes, raw average 18,188 CFUs; for Test 3 CFUs/ml, 12 ppm Fe-Chelant: chelant alone, no H2O2; for disinfection effect, in words: compared with hydrogen peroxide alone
Description: A 10 gallon sample of wastewater from the Massaponax Wastewater Plant was collected and allowed to sit undisturbed for thirty minutes. The clarified supernatant was then pored off of the top of the settled solids within the sample. The supernatant was then mixed and four samples were collected to determine untreated heterotrophic bacteria counts. […] were dissolved in distilled water at 0.4334M. Ferric chloride was added in amounts to achieve saturation of chelant sites on the respective chelants. […] Twenty individual liter samples of supernatant were then decanted from the well-mixed wastewater sample for testing. Four chelated iron products with peroxide were tested at two test concentrations and compared to samples receiving peroxide only and iron chelate only. […] Individual samples were dosed with the respective additives, mixed with a magnetic stir bar and allowed to react for 30 minutes. Samples were then decanted to sterile sample containers containing sodium thiosulfate to stop the oxidation process and preserve the sample. Samples were then placed in a refrigerator until all samples were finished. Samples were packaged in a standard cooler with ice packs and sent via overnite delivery to ProChem Labs in Lynchburg, Va. for analysis for total heterotrophic bacteria counts.

[2] = Treatment of sulfides in municipal wastewater with ferric chelants and ozone; conditions: 4 ppm ferric chelant where added; for Overall total percentage of sulfide reduction: ozone; for sulfide remaining: ozone at ~13.4 ppm
[3] = cited from earlier work
Fecal Coliform = test: Disinfection of wastewater, fecal coliform count; format: cell-based; conditions: 50 microliters 35% H2O2 (with or without 50 microliters Fe-GLC), after twenty minutes; control 2200
[4] = Comparative treatment of 2,4-D in water, GC analysis; conditions: after four hours
[5] = Series One, contact time 5 minutes, listed as Ferric NTA
[6] = Series Two, 20 ppm chelant, no H2O2, start 42.3 ppm sulfide, contact time 30 minutes
[7] = Series Two, contact time 5 minutes
[8] = Series Two, contact time 15 minutes
[9] = Series Two, contact time 30 minutes
[10] = start 13.70, contact time 5 minutes
[11] = start 13.70, contact time 10 minutes
[12] = start 13.70, contact time 20 minutes
[13] = Series One, contact time 5 minutes
[14] = Series One, contact time 15 minutes
[15] = Series One, contact time 30 minutes
[16] = Series One, no H2O2, start 25.4 ppm sulfide, contact time 30 minutes

Molecule	Percentage of Sulfide Treated, Dose 1 12 ppm Chelant 37.8 ppm H2O2 [1]	Percentage of Sulfide Treated, Dose 2 6 ppm Chelant 37.8 ppm H2O2 [1]	Percentage of Sulfide Treated, Dose 1 20 ppm Chelant 105.8 ppm H2O2 [1]	Percentage of Sulfide Treated, Dose 2 10 ppm Chelant 105.8 ppm H2O2 [1]	sulfide treatment compared with hydrogen peroxide alone, in words [1]	Test 1 CFUs/ml, 19.8 ppm H2O2 6 ppm Fe-Chelant (heterotrophic bacteria) [CFUs/ml]	Test 2 CFUs/ml, 39.6 ppm H2O2 12 ppm Fe-Chelant (heterotrophic bacteria) [CFUs/ml]	Test 3 CFUs/ml, 12 ppm Fe-Chelant (heterotrophic bacteria)	disinfection effect, in words (heterotrophic bacteria)	Overall total percentage of sulfide reduction [2] [%]	Sulfide Remaining, Dose 4 Chelant Only [1, 6] [ppm]	Sulfide Remaining, Dose 1 20 ppm Chelant [1, 7] [ppm]	Sulfide Remaining, Dose 2 10 ppm Chelant [1, 7] [ppm]	Sulfide Remaining, Dose 1 20 ppm Chelant [1, 8] [ppm]	Sulfide Remaining, Dose 2 10 ppm Chelant [1, 8] [ppm]	Sulfide Remaining, Dose 1 20 ppm Chelant [1, 9] [ppm]	Sulfide Remaining, Dose 2 10 ppm Chelant [1, 9] [ppm]	Sulfide Remaining, Dose 1 12 ppm Chelant [1, 13] [ppm]	Sulfide Remaining, Dose 2 6 ppm Chelant [1, 13] [ppm]	Sulfide Remaining, Dose 1 12 ppm Chelant [1, 14] [ppm]	further results
O=C([O-])CN(CCN(CC(=O)[O-])CC(=O)[O-])CC(=O)[O-].[Fe+3] [Fe-EDTA]	68.5	64.2	87.5	83.7	noticeably better	360	59	18,200 CFUs/ml	very little effect on viable cells beyond that exhibited by hydrogen peroxide alone	64	–	–	–	–	–	–	–	–	–	–	sulfide reduction after 15 minutes [1]: 60%; sulfide treatment after 15 minutes [1]: 61%; Overall total percentage of sulfide reduction ([2]; listed as ferric EDTA): 64%
O=C([O-])CN(CCO)CC(=O)[O-].[Fe+3] [Fe-HEIDA]	44.1	41.3	69.5	66.9	did not perform well	1350	84	16,700 CFUs/ml	very little effect on viable cells beyond that exhibited by hydrogen peroxide alone	60	–	–	–	–	–	–	–	–	–	–	Overall total percentage of sulfide reduction ([2]; listed as ferric HEIDA): 60%
O=C([O-])CN(CC(=O)[O-])CC(=O)[O-].[Fe+3] [Fe-NTA]	78.3	68.9	93.4	90.0	noticeably better	370	75	18,300 CFUs/ml	very little effect on viable cells beyond that exhibited by hydrogen peroxide alone	91	41.0	23.3	26.7	12.6	16.3	2.8	4.2	–	–	–	sulfide reduction after 15 minutes [1]: 70.2%; sulfide treatment after 15 minutes [1]: 73%; Sulfide Remaining, Dose 1 12 ppm Chelant [1, 5]: 15.2 ppm and 20.0 ppm; Sulfide Remaining, Dose 2 6 ppm Chelant [1, 5]: 15.9 ppm and 20.3 ppm; Sulfide Remaining, Dose 2 6 ppm Chelant ([1]; Series One, contact time 15 minutes, listed as Ferric NTA): 12.6 ppm and 16.4 ppm; Sulfide Remaining, Dose 2 6 ppm Chelant ([1]; Series One, contact time 30 minutes, listed as Ferric NTA): 7.9 ppm and 14.9 ppm; Sulfide Remaining, Dose 4 Chelant Only ([1]; Series One, no H2O2, start 25.4 ppm sulfide, contact time 30 minutes, listed as Ferric NTA): 24.6 ppm and 25.2 ppm; sulfide remaining [2, 10]: 3.40 ppm; sulfide remaining [2, 11]: 1.90 ppm; sulfide remaining [2, 12]: 1.30 ppm; Overall total percentage of sulfide reduction ([2]; listed as ferric NTA): 91%
O=C([O-])CC(O)(CC(=O)[O-])C(=O)[O-].[Fe+3] [Ferric Citrate]	58.7	51.2	66.2	69.5	–	–	–	–	–	–	42.0	30.1	29.9	19.6	20.2	14.3	12.9	17.8	18.1	14.1	Sulfide Remaining, Dose 2 6 ppm Chelant [1, 14]: 15.8 ppm; Sulfide Remaining, Dose 1 12 ppm Chelant [1, 15]: 10.5 ppm; Sulfide Remaining, Dose 2 6 ppm Chelant [1, 15]: 12.4 ppm; Sulfide Remaining, Dose 4 Chelant Only [1, 16]: 25.0 ppm
O=[O+][O-] [Ozone only, Ozone]	–	–	–	–	–	–	–	–	–	46	–	–	–	–	–	–	–	–	–	–	sulfide remaining [2, 10]: 8.05 ppm; sulfide remaining [2, 11]: 7.50 ppm; sulfide remaining [2, 12]: 7.40 ppm
O=C([O-])[C@H](O)[C@@H](O)[C@H](O)[C@H](O)CO.[Na+] [Sodium gluconate]	–	–	–	–	–	–	–	–	–	–	–	–	–	–	–	–	–	–	–	–	readily biodegradable ([3]; after 2 days): 98%; solubility in water [3]: very soluble in water
Ferric Ascorbate	62.2	59.0	74.5	71.9	some modest improvement over hydrogen peroxide treatment alone	–	–	–	–	–	41.8	26.9	27.2	17.7	19.7	10.8	11.9	16.6	17.2	11.8	Sulfide Remaining, Dose 2 6 ppm Chelant [1, 14]: 12.4 ppm; Sulfide Remaining, Dose 1 12 ppm Chelant [1, 15]: 9.6 ppm; Sulfide Remaining, Dose 2 6 ppm Chelant [1, 15]: 10.4 ppm; Sulfide Remaining, Dose 4 Chelant Only [1, 16]: 24.6 ppm
Ferric Gallate	59.1	55.9	68.7	69.0	did not perform well overall	–	–	–	–	–	43.0	29.2	27.8	20.2	22.2	13.2	13.1	18.4	18.0	14.0	Sulfide Remaining, Dose 2 6 ppm Chelant [1, 14]: 13.6 ppm; Sulfide Remaining, Dose 1 12 ppm Chelant [1, 15]: 10.4 ppm; Sulfide Remaining, Dose 2 6 ppm Chelant [1, 15]: 11.2 ppm; Sulfide Remaining, Dose 4 Chelant Only [1, 16]: 24.7 ppm
ferric gluconate [Fe-GLC]	83.1	70.8	97.4	94.8	noticeably better	98	28	22,600 CFUs/ml	better than peroxide alone	90	43.0	18.6	23.5	5.6	7.3	1.1	2.2	14.2	15.9	7.3	Fecal Coliform (Fecal Coliform): no detectable CFUs; sulfide reduction after 15 minutes [1]: 86.8%; sulfide treatment after 15 minutes [1]: 70%; Sulfide Remaining, Dose 2 6 ppm Chelant [1, 14]: 11.5 ppm; Sulfide Remaining, Dose 1 12 ppm Chelant [1, 15]: 4.3 ppm; Sulfide Remaining, Dose 2 6 ppm Chelant [1, 15]: 7.4 ppm; Sulfide Remaining, Dose 4 Chelant Only [1, 16]: 24.9 ppm; sulfide remaining [2, 10]: 3.40 ppm; sulfide remaining [2, 11]: 2.80 ppm; sulfide remaining [2, 12]: 1.40 ppm; Overall total percentage of sulfide reduction ([2]; listed as Fe-Gluconate): 90%; effect on 2,4-D, in words [4]: substantially reduced
